PubChem BioAssay AID1919013 (Molecular Pharmacology Branch, DTP, NCI, 2023)

System: LG0703-F498-PDC complex spheroid growth
Test: Anticancer human tumor LG0703-F498-PDC patient-derived lung adenocarcinoma cell line growth inhibition [AhR]
Conditions: for IC50: curve of first compound; for viability, T/C: stronger effect = lower value
Text: Multicellular complex tumor spheroid response to aryl hydrocarbon receptor antagonists in combination with a variety of drugs and investigational agents in selected tumor cell lines
The current study was undertaken to assess response to aryl hydrocarbon receptor antagonists in combination with standard-of-care drugs and investigational agents in solid tumor complex spheroid models. Complex spheroids include a stromal component modeled by human endothelial cells (HUVEC) and fibroblasts modeled by human mesenchymal stem cells (MSCs). The concentration ranges selected for each drug and investigational agent were based upon clinically achievable concentrations if the clinical Cmax of the agent was known.
Compounds. The drugs and investigational agents: BAY 2416964 (NSC825713), GNF351 (NSC835774), CH-223191 (NSC835775), CPI-455 (NSC825282), aza-TdCyd (NSC777586), decitabine (NSC127716), belinostat (NSC758774), entinostat (NSC756642), pevonedistat (NSC761192), tazemetostat (NSC777109), talazoparib (NSC765396), olaparib (NSC753686), selinexor (NSC780203), nedisertib (M3814, NSC802822), bortezomib (NSC756655), venetoclax (NSC766270), doxorubicin (NSC123127), elimusertib (BAY189344, NSC800525), ceralasertib (AZD6738, NSC777638), TAK-243 (NSC785004), alisertib (NSC759677), etoposide (NSC141540), topotecan (NSC609699), eribulin (NSC707389), gemcitabine (NSC613327), carboplatin (NSC241240), cisplatin (NSC119875), and SN-38 (NSC673596) were obtained from the National Cancer Institute (NCI) Developmental Therapeutics Program Chemical Repository (32). The FDA-approved anticancer drug set is available from the Developmental Therapeutics Program at https://dtp.cancer.gov/organization/dscb/obtaining/available plates.htm. […] The stock solutions were prepared in dimethyl sulfoxide (DMSO, Sigma-Aldrich, St. Louis, MO, cat. D2650), except for the platinum compounds which were prepared in saline (Quality Biological, Gaithersburg, MD, cat. 114-055-101), at 800-fold the tested concentration and stored at -70 degrees C prior to their use. All drugs and investigational agents were tested over a range starting from a high concentration at or near the clinical Cmax and decreasing in half-log increments. If the clinical Cmax for an agent had not been determined, the highest concentration tested was 10 microM (Table 1).
Cell Culture. All cells were maintained in an incubator at 37 degrees C and 5% CO2 with 95% humidity. The PDC lines were cultured according to standard operating procedures established by the NCI PDMR (https://pdmr.cancer.gov). Briefly, all PDCs were thawed and cultured in Matrigel-coated flasks prepared with a working solution of 1X Ham's F-12 nutrient mix, without supplementation (Invitrogen, Waltham, MA, cat. 11765054), 100 U/mL penicillin-streptomycin (Invitrogen, cat. 15140122), and 2.5% Matrigel (Corning Inc., Corning, NY, cat. 354248) for the first three passages. All PDCs were cultured in complete DMEM/F-12 media containing advanced DMEM/F-12 (Invitrogen, cat. 12634028), 4.9% defined fetal bovine serum, heat inactivated (HyClone Laboratories Inc., Logan, UT, cat. SH30070.03HI), 389 ng/mL hydrocortisone (Sigma-Aldrich, cat. H4001), 9.7 ng/mL human EGF recombinant protein (Invitrogen, cat. PHG0313), 23.4 microg/mL adenine (Sigma-Aldrich, cat. A2786), 97.3 U/mL penicillin-streptomycin (Invitrogen, cat. 15140122), 1.9 mM L-glutamine (Invitrogen, cat. 25030081), and 9.7 microM Y-27632 dihydrochloride (Tocris Bioscience, Bristol, United Kingdom, cat. 1254). The PDCs were cultured in complete DMEM/F12 media without 10 microM Y-27632 dihydrochloride for at least two passages prior to the screen. The established cell lines NCI-H1341 and […] were cultured in DMEM/F-12, HEPES (Invitrogen, cat. 11330032), 5% defined fetal bovine serum (HyClone Laboratories Inc., cat. SH30070.03), ITS premix universal culture supplement [insulin (5 microg/mL), transferrin (5 microg/mL), and selenious acid (5 ng/mL)] […]

[1] = second compound 0.1 µM, first compound 0.0316 µM
[2] = second compound 0.1 µM, first compound 0.1 µM
[3] = second compound 0.1 µM, first compound 0.316 µM
[4] = second compound 0.1 µM, first compound 1 µM
[5] = second compound 0.316 µM, first compound 0.0316 µM
[6] = second compound 0.316 µM, first compound 0.1 µM
[7] = second compound 0.316 µM, first compound 0.316 µM
[8] = second compound 0.316 µM, first compound 1 µM
[9] = second compound 1 µM, first compound 0.0316 µM
[10] = second compound 1 µM, first compound 0.1 µM
[11] = second compound 1 µM, first compound 0.316 µM
[12] = second compound 1 µM, first compound 1 µM
[13] = second compound 3.16 µM, first compound 0.0316 µM
[14] = second compound 3.16 µM, first compound 0.1 µM
[15] = second compound 3.16 µM, first compound 0.316 µM
[16] = second compound 3.16 µM, first compound 1 µM
[17] = second compound 10 µM, first compound 0.0316 µM
[18] = second compound 10 µM, first compound 0.1 µM
[19] = second compound 10 µM, first compound 0.316 µM
[20] = second compound 10 µM, first compound 1 µM
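Note: luminescence taken as a proxy for viable cell amount.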
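Throughout, for viability, T/C: percent of DMSO vehicle control where 100% means growth equal to vehicle.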

Row | Compound | IC50 (second compound 0.1 µM) | IC50 (second compound 0.316 µM) | IC50 (second compound 1 µM) | IC50 (second compound 3.16 µM) | IC50 (second compound 10 µM) | viability, T/C [1] | viability, T/C [2] | viability, T/C [3] | viability, T/C [4] | viability, T/C [5] | viability, T/C [6] | viability, T/C [7] | viability, T/C [8] | viability, T/C [9] | viability, T/C [10] | viability, T/C [11] | viability, T/C [12] | viability, T/C [13] | viability, T/C [14] | viability, T/C [15] | other results
1 | COc1cccc2c1C(=O)c1c(O)c3c(c(O)c1C2=O)CC(O)(C(=O)CO)CC3OC1CC(N)C(O)C(C)O1 (stereo not given) + CC(CO)NC(=O)c1cc(-c2ccc(Cl)cc2)nn(-c2cnn(C)c2)c1=O | 770 nM | 523 nM | 547 nM | 459 nM | 360 nM | 82.7% | 80.6% | 72.2% | 43% | 84.3% | 84.2% | 58.4% | 36% | 86.7% | 89.6% | 61.6% | 34.7% | 82.7% | 84.8% | 59.3% | viability, T/C (second compound 0.1 µM, first compound 3.16 µM): 14.2%; viability, T/C (second compound 0.1 µM, first compound 10 µM): 1.2%; viability, T/C (second compound 0.316 µM, first compound 3.16 µM): 12.7%; viability, T/C (second compound 0.316 µM, first compound 10 µM): 0.83%; viability, T/C (second compound 1 µM, first compound 3.16 µM): 10%; viability, T/C (second compound 1 µM, first compound 10 µM): 0.76%; viability, T/C [16]: 27.4%; viability, T/C (second compound 3.16 µM, first compound 3.16 µM): 4.74%; viability, T/C (second compound 3.16 µM, first compound 10 µM): 1.92%; viability, T/C [17]: 71.3%; viability, T/C [18]: 73.8%; viability, T/C [19]: 54.1%; viability, T/C [20]: 13.9%; viability, T/C (second compound 10 µM, first compound 3.16 µM): 0.65%; viability, T/C (second compound 10 µM, first compound 10 µM): 0.96%
2 | Nc1ncn(C2CC(O)C(CO)O2)c(=O)n1 (stereo not given) + CC(CO)NC(=O)c1cc(-c2ccc(Cl)cc2)nn(-c2cnn(C)c2)c1=O | > 1000 nM | > 1000 nM | > 1000 nM | > 1000 nM | > 1000 nM | 84.8% | 91.1% | 85.9% | 78% | 82.2% | 87.5% | 79.2% | 76.5% | 78.5% | 79.5% | 71.7% | 77.4% | 88.4% | 67.9% | 80.5% | viability, T/C (second compound 0.1 µM, first compound 0.00316 µM): 85.3%; viability, T/C (second compound 0.1 µM, first compound 0.01 µM): 99.4%; viability, T/C (second compound 0.316 µM, first compound 0.00316 µM): 81.5%; viability, T/C (second compound 0.316 µM, first compound 0.01 µM): 91.9%; viability, T/C (second compound 1 µM, first compound 0.00316 µM): 83.5%; viability, T/C (second compound 1 µM, first compound 0.01 µM): 106%; viability, T/C (second compound 3.16 µM, first compound 0.00316 µM): 78.7%; viability, T/C (second compound 3.16 µM, first compound 0.01 µM): 80%; viability, T/C [16]: 71.8%; viability, T/C (second compound 10 µM, first compound 0.00316 µM): 87.4%; viability, T/C (second compound 10 µM, first compound 0.01 µM): 80.2%; viability, T/C [17]: 79.3%; viability, T/C [18]: 80.3%; viability, T/C [19]: 69.9%; viability, T/C [20]: 72.7%
